The Tmax is the time at which the peak concentration occurs. Broadly, the Cmax is the highest concentration seen after dosing. As a reminder, the half-life is the time in which the quantity being followed falls by half. A higher half-life goes with slow loss.

This is an account of results in patent publication US7291638B2, “3-amido-1,2-benzoisoxazole derivatives, process for preparation, and use thereof” (Dongwha Pharm. Ind. Co., Ltd., priority 2001, dated 2007).

Series [1] is described as follows: Pharmacokinetics test in rats (oral; plasma concentration of the compound of formula 2 by HPLC). The series is classed as in vivo, rat. On the procedure: Male white rats (Sprague-Dawley) having body weights of 230˜260 g were used, 3˜4 rats were tested for a drug. Rats were fasted for 18˜20 hours before the drug was administered. The weight of rat was measured on the day of the experiment, the drug was administered orally to the rats according to dosage. After administration, rats were lightly anesthetized with diethyl ether. At […], 0.17, 0.5, 1.0, 1.5, 3.0, 5.0, 8.0 hours, the blood was collected from orbit vein of the rats by canulation. The collected blood was centrifuged, and the plasma was isolated. To determine concentration of the drug in plasma, HPLC was carried out as follows. Acetonitrile containing internal standard substance and the isolated plasma was mixed in the same amount, followed by centrifuging at 12,000 rpm. The supernatent was applied to HPLC, bioavailability of the compounds prepared in EXAMPLES was measured by analyzing a plasma concentration of the compound of formula 2.
Pharmacokinetics parameters were measured by noncompartmental analysis, using WinNolin (ver. 1.0 Scientific Consulting Inc., USA). Time and maximum plasma concentration were registered by observed data, half life was calculated by linear regression analysis of terminal elimination phase.

For another series, the system named is osteoclast cell. The series can be described thus: Change in the number of osteoclast cell in osteoporotic rats induced by ovariectomy. Particulars: for osteoclast cells inducing the osteolysis (in words): osteoporotic rats induced by ovariectomy, group administered the drug; for number of osteoclast cell, Tibia Left / number of osteoclast cell, Tibia Right / number of osteoclast cell, femur Left / number of osteoclast cell, femur Right: ovariectomized rats, cells within 1 mm^2 area, 10 sections, mean±SD, PEG 100 solution, intramuscular injection, 40 days; for number of osteoclast cell, femur Right: same concentration as formula 2 (100 mg per kg). The class given is in vivo, rat. On the procedure:
(§1) To investigate therapeutic value of the osteoporosis to ovariectomized rats, change in the number of osteoclast cell and area ratio of trabecular bone (volume %) were measured.
(§2) After 25 female white rats purchased from Chales River (Japan) were adjusted to a new environment, temperature of 20˜25° C. and relative humidity of 30˜35%. The 5 rats were positioned in a hutch, feed (Sam Yang corporation) and water were supplied to the rats. 20 rats had the operation for the removal of an ovary, 5 rats had the Sham operation for opening and suturing the abdominal cavity, used as Sham control group.
(§3) Also, to compare drug efficacies of EXAMPLE and the compound of formula 2, 5 rats removed of the ovary were used as experimental group. The compound of formula 2 was dissolved in injectable distilled water and administered to the rats orally in an amount of 100 mg per kg for 40 days from 10 weeks after ovariectomy or Sham-operation, using oral sonde. 5 ml/kg was administered to the rats. […] 5 ml/kg was administered to the rats.
(§4) After administration terminated, the femur and tibia were removed from the animals, and fixed in 10% neutral formalin. The fixed tissue was decalcified in a solution (solution mixed 24.4% formic acid and 0.5 N sodium hydroxide) for 5 days, embedded in paraffin and 3˜4 μm sections were prepared. After that prepared section were dyed by hematoxylin-eosin.
Change in the number of osteoclast cell was calculated by mean±standard deviation through the number of the osteoclast cell existed within 1 mm^2 area at the 10 sections. The experiment group administered was compared with the control group not and Sham group.

In series [2] the test system is osteoporotic rat induced by ovariectomy. As to the kind of experiment: Area ratio of trabecular bone in osteoporotic rats induced by ovariectomy. Particulars: for area ratio of trabecular bone, Femur Left / area ratio of trabecular bone, Femur Right / area ratio of trabecular bone, Tibia Left / area ratio of trabecular bone, Tibia Right: ovariectomized rats, 40 days. The class given is in vivo. On the procedure:
as §1, §2, §3, §4
Also, the area ratio of trabecular bone was calculated at the section of the femur and tibia respectively, through the equation.

Setting [3] is: male Sprague-Dawley rats, 50 mg/kg, vehicle DW (distilled water).
[4] abbreviates: male Sprague-Dawley rats, 50 mg/kg, vehicle DW (distilled water), analyte compound of formula 2 in plasma.
[5] abbreviates: male Sprague-Dawley rats, 100 mg/kg, vehicle DW (distilled water).
The mark [6] stands for this setting: injectable distilled water, oral, 100 mg per kg.
Setting [7] is: osteoporotic rats induced by ovariectomy.
[8] abbreviates: PEG 100 solution, intramuscular injection.

Where two headings read alike, the source gives them in different places.

Take “{5-[4-(4-diisopropylcarbamoyl-2-methoxy-phenoxy)-butoxy]-benzo[d]isoxazole-3-ylcarbamoyl}-methyl-ammonium methane sulfonic acid salt [Example 1]”: in series [1] (setting [3]), the time to peak (Tmax) stood at 30 min and the “Total AUC” value came out at 5720 ng·h/mL. This compound returned a Cmax in series [1] (setting [4]) of 1530 ng/mL. In series [1] (setting [5]), the Cmax is 1510 ng/mL, the Tmax was found to be 30 min and the “Total AUC” value was 11080 ng·h/mL. Further, in the series on osteoclast cell, the “osteoclast cells inducing the osteolysis (in words)” value was “significantly decreased”; the “number of osteoclast cell, Tibia Left” value was 5.40 ± 2.76*.^##; the “number of osteoclast cell, Tibia Right” value was 5.30 ± 2.00*.^#; the “number of osteoclast cell, femur Left” value was 5.10 ± 2.38*.^#. Besides, the “number of osteoclast cell, femur Right” value with osteoclast cell is on record as 4.90 ± 1.52*.^#.

Regarding `COc1cc(C(=O)N(C(C)C)C(C)C)ccc1OCCCCOc1ccc2c(N)noc2c1` [Formula 2, reference compound], the “Total AUC” value in series [1] (male Sprague-Dawley rats, 50 mg/kg, vehicle DMSO) is 190 ng·h/mL. Besides, the Cmax in series [1] (male, Sprague-Dawley, rat, plasma, po, 50 mg/kg, male Sprague-Dawley rats, 50 mg/kg, vehicle DMSO, read-out: Cmax) came out at 470 ng/mL. In addition, the Tmax in series [1] (male, Sprague-Dawley, rat, plasma, po, 50 mg/kg, male Sprague-Dawley rats, 50 mg/kg, vehicle DMSO, read-out: Tmax) turned out to be 10.2 min. Moreover, the Cmax in series [1] (male, Sprague-Dawley, rat, plasma, po, 50 mg/kg, male Sprague-Dawley rats, 50 mg/kg, vehicle DW + T (distilled water + tween 80), read-out: Cmax) is 80 ng/mL. The Tmax in series [1] (male, Sprague-Dawley, rat, plasma, po, 50 mg/kg, male Sprague-Dawley rats, 50 mg/kg, vehicle DW + T (distilled water + tween 80), read-out: Tmax) turned out to be 90 min. The “drug absorption (in words)” value in series [1] (rat, 50 mg per kg, dissolved in distilled water and tween 80) is reported as “no drug was absorbed”. For the same compound, the half-life in series [1] (rat, plasma, male Sprague-Dawley rats, 50 mg/kg, vehicle DMSO) is 19.2 min. In addition, in series [2] (setting [6]), the “area ratio of trabecular bone, Femur Left” value was 31.38 ± 7.88*.^## volume %; the “area ratio of trabecular bone, Femur Right” value is reported as 31.69 ± 9.83 volume %; the “area ratio of trabecular bone, Tibia Left” value amounted to 28.22 ± 5.54 volume %; the “area ratio of trabecular bone, Tibia Right” value is recorded as 29.35 ± 11.37 volume %.

For the compound `COc1cc(C(=O)N(C(C)C)C(C)C)ccc1OCCCCOc1ccc2onc(NC(=O)[C@H](C)N)c2c1.CS(=O)(=O)O` [Example 2, (1S)-1-{5-[4-(4-diisopropylcarbamoyl-2-methoxy-phenoxy)-butoxy]-benzo[d]isoxazole-3-ylcarbamoyl)-ethyl-ammonium methane sulfonic acid salt], in series [2] (setting [7]), the “area ratio of trabecular bone compared to the control group (in words)” value is reported as “excellently increased” and the “therapeutic value (area ratio of the trabecular bone) compared with the compound of formula 2 (in words)” value was “more distinguished therapeutic value than the compound of formula 2”. Besides, in series [2] (setting [8]), the “area ratio of trabecular bone, Femur Left” value amounted to 41.95 ± 8.78 volume %; the “area ratio of trabecular bone, Tibia Left” value was 40.12 ± 7.20**.^# volume %; the “area ratio of trabecular bone, Tibia Right” value was 35.58 ± 9.55*.^## volume %. Further, the “area ratio of trabecular bone, Femur Right” value in series [2] (PEG 100 solution, intramuscular injection, same concentration as formula 2 (100 mg per kg)) is given as 33.93 ± 3.71*.^## volume %. Also, in the series on osteoclast cell, the “osteoclast cells inducing the osteolysis (in words)” value is reported as “significantly decreased”; the “number of osteoclast cell, Tibia Left” value was 4.50 ± 1.60*.^#; the “number of osteoclast cell, Tibia Right” value is given as 5.63 ± 1.30*.^#; the “number of osteoclast cell, femur Left” value is recorded as 4.50 ± 1.69*.^#. Also, the “number of osteoclast cell, femur Right” value in the series with osteoclast cell was 5.00 ± 1.51*.^##.

Turning to `COc1cc(C(=O)N(C(C)C)C(C)C)ccc1OCCCCOc1ccc2onc(NC(=O)[C@@H](N)C(C)C)c2c1.CS(=O)(=O)O` [Example 4, (1S)-1-{5-[4-(4-diisopropylcarbamoyl-2-methoxy-phenoxy)-butoxy]-benzo[d-]isoxazole-3-ylcarbamoyl)-2-methyl-propyl-ammonium methane sulfonic acid salt], in series [1] (setting [3]), the T1/2 was 66.6 min, the Tmax turned out to be 30 min and the “Total AUC” value was 2450 ng·h/mL. The same compound registered a Cmax in series [1] (setting [4]) of 980 ng/mL.
